In the supplement of paper PMC8882468:

Tested on: HCI-001 (organoid from a triple-negative breast cancer xenograft)
Experiment: CTG-3D luminescence at 96 h relative to day-0 seeding control (ratio to day 0); higher = more growth / less cytotoxicity; PDxO 3D drug screen, 96 h, CTG-3D normalised to day-0 seeding control.
Conditions: 0.005 µM; days in culture: 240

| Structure (SMILES) | CTG-3D luminescence at 96 h |
| --- | --- |
| C[C@H](NC(=O)CCC(F)(F)F)C(=O)N[C@@H]1C(=O)N(CCO)c2ncccc2-c2ccccc21 [crenigacestat] | 1.03 |
| Cc1cc(Nc2ncc(Cl)c(Nc3ccccc3S(=O)(=O)C(C)C)n2)c(OC(C)C)cc1C1CCNCC1 [ceritinib] | 1.07 |
| CS(=O)(=O)c1ccc(C(=O)Nc2ccc(Cl)c(-c3ccccn3)c2)c(Cl)c1 [vismodegib] | 0.998 |
| NC(=O)c1cccc2cn(-c3ccc([C@@H]4CCCNC4)cc3)nc12 [niraparib] | 0.843 |
| Cc1cc(Nc2ncnc3ccc(NC4=NC(C)(C)CO4)cc23)ccc1Oc1ccn2ncnc2c1 [tucatinib] | 0.65 |
| CCN(c1cc(C#CCN2CCOCC2)cc(C(=O)NCc2c(C)cc(C)[nH]c2=O)c1C)[C@H]1CC[C@H](N(C)CCOC)CC1 | 1.34 |

Same assay, conditions: 0.005 µM; days in culture: 260

| Structure (SMILES) | CTG-3D luminescence at 96 h |
| --- | --- |
| NC1(C(=O)N[C@@H](CCO)c2ccc(Cl)cc2)CCN(c2nc[nH]c3nccc2-3)CC1 [capivasertib] | 1.9 |
| CC(C)n1nc(-c2ccc3oc(N)nc3c2)c2c(N)ncnc21 [sapanisertib] | 1.61 |
| O=C(c1ccc(F)c(F)c1Nc1ccc(I)cc1F)N1CC(O)([C@@H]2CCCCN2)C1 [cobimetinib] | 1.46 |
| C[C@H](NC(=O)CCC(F)(F)F)C(=O)N[C@@H]1C(=O)N(CCO)c2ncccc2-c2ccccc21 [crenigacestat] | 1.52 |
| Cc1cc(Nc2ncc(Cl)c(Nc3ccccc3S(=O)(=O)C(C)C)n2)c(OC(C)C)cc1C1CCNCC1 [ceritinib] | 1.67 |
| CS(=O)(=O)c1ccc(C(=O)Nc2ccc(Cl)c(-c3ccccn3)c2)c(Cl)c1 [vismodegib] | 2.27 |
| NC(=O)c1cccc2cn(-c3ccc([C@@H]4CCCNC4)cc3)nc12 [niraparib] | 2.11 |
| Cc1cc(Nc2ncnc3ccc(NC4=NC(C)(C)CO4)cc23)ccc1Oc1ccn2ncnc2c1 [tucatinib] | 1.22 |
| CCN(c1cc(C#CCN2CCOCC2)cc(C(=O)NCc2c(C)cc(C)[nH]c2=O)c1C)[C@H]1CC[C@H](N(C)CCOC)CC1 | 2.11 |

Same assay, conditions: 0.005 µM; days in culture: 269

| Structure (SMILES) | CTG-3D luminescence at 96 h |
| --- | --- |
| NC1(C(=O)N[C@@H](CCO)c2ccc(Cl)cc2)CCN(c2nc[nH]c3nccc2-3)CC1 [capivasertib] | 1.82 |
| CC(C)n1nc(-c2ccc3oc(N)nc3c2)c2c(N)ncnc21 [sapanisertib] | 1.19 |
| O=C(c1ccc(F)c(F)c1Nc1ccc(I)cc1F)N1CC(O)([C@@H]2CCCCN2)C1 [cobimetinib] | 1.56 |
| C[C@H](NC(=O)CCC(F)(F)F)C(=O)N[C@@H]1C(=O)N(CCO)c2ncccc2-c2ccccc21 [crenigacestat] | 1.37 |
| Cc1cc(Nc2ncc(Cl)c(Nc3ccccc3S(=O)(=O)C(C)C)n2)c(OC(C)C)cc1C1CCNCC1 [ceritinib] | 1.43 |
| CS(=O)(=O)c1ccc(C(=O)Nc2ccc(Cl)c(-c3ccccn3)c2)c(Cl)c1 [vismodegib] | 1.55 |
| NC(=O)c1cccc2cn(-c3ccc([C@@H]4CCCNC4)cc3)nc12 [niraparib] | 1.42 |
| Cc1cc(Nc2ncnc3ccc(NC4=NC(C)(C)CO4)cc23)ccc1Oc1ccn2ncnc2c1 [tucatinib] | 1.39 |
| CCN(c1cc(C#CCN2CCOCC2)cc(C(=O)NCc2c(C)cc(C)[nH]c2=O)c1C)[C@H]1CC[C@H](N(C)CCOC)CC1 | 1.22 |

Same assay, conditions: 0.005 µM; days in culture: 327

| Structure (SMILES) | CTG-3D luminescence at 96 h |
| --- | --- |
| NC1(C(=O)N[C@@H](CCO)c2ccc(Cl)cc2)CCN(c2nc[nH]c3nccc2-3)CC1 [capivasertib] | 1.7 |
| CC(C)n1nc(-c2ccc3oc(N)nc3c2)c2c(N)ncnc21 [sapanisertib] | 1.33 |
| O=C(c1ccc(F)c(F)c1Nc1ccc(I)cc1F)N1CC(O)([C@@H]2CCCCN2)C1 [cobimetinib] | 1.72 |
| C[C@H](NC(=O)CCC(F)(F)F)C(=O)N[C@@H]1C(=O)N(CCO)c2ncccc2-c2ccccc21 [crenigacestat] | 1.63 |
| Cc1cc(Nc2ncc(Cl)c(Nc3ccccc3S(=O)(=O)C(C)C)n2)c(OC(C)C)cc1C1CCNCC1 [ceritinib] | 1.9 |
| CS(=O)(=O)c1ccc(C(=O)Nc2ccc(Cl)c(-c3ccccn3)c2)c(Cl)c1 [vismodegib] | 2.29 |
| NC(=O)c1cccc2cn(-c3ccc([C@@H]4CCCNC4)cc3)nc12 [niraparib] | 2.3 |
| Cc1cc(Nc2ncnc3ccc(NC4=NC(C)(C)CO4)cc23)ccc1Oc1ccn2ncnc2c1 [tucatinib] | 1.87 |
| CCN(c1cc(C#CCN2CCOCC2)cc(C(=O)NCc2c(C)cc(C)[nH]c2=O)c1C)[C@H]1CC[C@H](N(C)CCOC)CC1 | 2.09 |

Same assay, conditions: 0.005 µM; days in culture: 346

| Structure (SMILES) | CTG-3D luminescence at 96 h |
| --- | --- |
| NC1(C(=O)N[C@@H](CCO)c2ccc(Cl)cc2)CCN(c2nc[nH]c3nccc2-3)CC1 [capivasertib] | 1.35 |
| CC(C)n1nc(-c2ccc3oc(N)nc3c2)c2c(N)ncnc21 [sapanisertib] | 1.09 |
| O=C(c1ccc(F)c(F)c1Nc1ccc(I)cc1F)N1CC(O)([C@@H]2CCCCN2)C1 [cobimetinib] | 1.07 |
| C[C@H](NC(=O)CCC(F)(F)F)C(=O)N[C@@H]1C(=O)N(CCO)c2ncccc2-c2ccccc21 [crenigacestat] | 1.1 |
| Cc1cc(Nc2ncc(Cl)c(Nc3ccccc3S(=O)(=O)C(C)C)n2)c(OC(C)C)cc1C1CCNCC1 [ceritinib] | 1.16 |
| CS(=O)(=O)c1ccc(C(=O)Nc2ccc(Cl)c(-c3ccccn3)c2)c(Cl)c1 [vismodegib] | 1.23 |
| NC(=O)c1cccc2cn(-c3ccc([C@@H]4CCCNC4)cc3)nc12 [niraparib] | 1.24 |
| Cc1cc(Nc2ncnc3ccc(NC4=NC(C)(C)CO4)cc23)ccc1Oc1ccn2ncnc2c1 [tucatinib] | 1.17 |
| CCN(c1cc(C#CCN2CCOCC2)cc(C(=O)NCc2c(C)cc(C)[nH]c2=O)c1C)[C@H]1CC[C@H](N(C)CCOC)CC1 | 1.21 |

Same assay, conditions: 0.005 µM; days in culture: 364

| Structure (SMILES) | CTG-3D luminescence at 96 h |
| --- | --- |
| NC1(C(=O)N[C@@H](CCO)c2ccc(Cl)cc2)CCN(c2nc[nH]c3nccc2-3)CC1 [capivasertib] | 1.21 |
| CC(C)n1nc(-c2ccc3oc(N)nc3c2)c2c(N)ncnc21 [sapanisertib] | 1.21 |
| O=C(c1ccc(F)c(F)c1Nc1ccc(I)cc1F)N1CC(O)([C@@H]2CCCCN2)C1 [cobimetinib] | 1.3 |
| C[C@H](NC(=O)CCC(F)(F)F)C(=O)N[C@@H]1C(=O)N(CCO)c2ncccc2-c2ccccc21 [crenigacestat] | 1.35 |
| Cc1cc(Nc2ncc(Cl)c(Nc3ccccc3S(=O)(=O)C(C)C)n2)c(OC(C)C)cc1C1CCNCC1 [ceritinib] | 1.4 |
| CS(=O)(=O)c1ccc(C(=O)Nc2ccc(Cl)c(-c3ccccn3)c2)c(Cl)c1 [vismodegib] | 1.67 |
| NC(=O)c1cccc2cn(-c3ccc([C@@H]4CCCNC4)cc3)nc12 [niraparib] | 1.69 |
| Cc1cc(Nc2ncnc3ccc(NC4=NC(C)(C)CO4)cc23)ccc1Oc1ccn2ncnc2c1 [tucatinib] | 1.34 |
| CCN(c1cc(C#CCN2CCOCC2)cc(C(=O)NCc2c(C)cc(C)[nH]c2=O)c1C)[C@H]1CC[C@H](N(C)CCOC)CC1 | 1.76 |

Same assay, conditions: 0.1 µM; days in culture: 240

| Structure (SMILES) | CTG-3D luminescence at 96 h |
| --- | --- |
| NC1(C(=O)N[C@@H](CCO)c2ccc(Cl)cc2)CCN(c2nc[nH]c3nccc2-3)CC1 [capivasertib] | 0.601 |
| CC(C)n1nc(-c2ccc3oc(N)nc3c2)c2c(N)ncnc21 [sapanisertib] | 0.395 |
| O=C(c1ccc(F)c(F)c1Nc1ccc(I)cc1F)N1CC(O)([C@@H]2CCCCN2)C1 [cobimetinib] | 1.08 |
| C[C@H](NC(=O)CCC(F)(F)F)C(=O)N[C@@H]1C(=O)N(CCO)c2ncccc2-c2ccccc21 [crenigacestat] | 0.845 |
| Cc1cc(Nc2ncc(Cl)c(Nc3ccccc3S(=O)(=O)C(C)C)n2)c(OC(C)C)cc1C1CCNCC1 [ceritinib] | 1.15 |
| CS(=O)(=O)c1ccc(C(=O)Nc2ccc(Cl)c(-c3ccccn3)c2)c(Cl)c1 [vismodegib] | 1.03 |
| NC(=O)c1cccc2cn(-c3ccc([C@@H]4CCCNC4)cc3)nc12 [niraparib] | 1.05 |
| Cc1cc(Nc2ncnc3ccc(NC4=NC(C)(C)CO4)cc23)ccc1Oc1ccn2ncnc2c1 [tucatinib] | 1.24 |
| CCN(c1cc(C#CCN2CCOCC2)cc(C(=O)NCc2c(C)cc(C)[nH]c2=O)c1C)[C@H]1CC[C@H](N(C)CCOC)CC1 | 1.12 |

Same assay, conditions: 0.1 µM; days in culture: 260

| Structure (SMILES) | CTG-3D luminescence at 96 h |
| --- | --- |
| NC1(C(=O)N[C@@H](CCO)c2ccc(Cl)cc2)CCN(c2nc[nH]c3nccc2-3)CC1 [capivasertib] | 1.32 |
| CC(C)n1nc(-c2ccc3oc(N)nc3c2)c2c(N)ncnc21 [sapanisertib] | 0.622 |
| O=C(c1ccc(F)c(F)c1Nc1ccc(I)cc1F)N1CC(O)([C@@H]2CCCCN2)C1 [cobimetinib] | 1.28 |
| C[C@H](NC(=O)CCC(F)(F)F)C(=O)N[C@@H]1C(=O)N(CCO)c2ncccc2-c2ccccc21 [crenigacestat] | 1.34 |
| Cc1cc(Nc2ncc(Cl)c(Nc3ccccc3S(=O)(=O)C(C)C)n2)c(OC(C)C)cc1C1CCNCC1 [ceritinib] | 1.28 |
| CS(=O)(=O)c1ccc(C(=O)Nc2ccc(Cl)c(-c3ccccn3)c2)c(Cl)c1 [vismodegib] | 1.74 |
| NC(=O)c1cccc2cn(-c3ccc([C@@H]4CCCNC4)cc3)nc12 [niraparib] | 1.64 |
| Cc1cc(Nc2ncnc3ccc(NC4=NC(C)(C)CO4)cc23)ccc1Oc1ccn2ncnc2c1 [tucatinib] | 1.38 |
| CCN(c1cc(C#CCN2CCOCC2)cc(C(=O)NCc2c(C)cc(C)[nH]c2=O)c1C)[C@H]1CC[C@H](N(C)CCOC)CC1 | 1.83 |
